Results reported in US6160004A, “C-10 carbon-substituted artemisinin-like trioxane compounds having antimalarial, antiproliferative and antitumor activities” (priority 1998, dated 2000).
Where two headings read alike, the source gives them in different places.

Tests used:
[1] = tested on: SF-539; experiment: cells; format: cell-based; conditions: Homo sapiens, SF-539, CNS cancer, 48 h
[2] = tested on: MOLT-4; experiment: cells; conditions: Homo sapiens
[3] = tested on: SF-268; experiment: cells; format: cell-based; conditions: Homo sapiens, SF-268, CNS cancer, 48 h
[4] = tested on: MDA-MB231/ATCC; experiment: cells; format: cell-based; conditions: Homo sapiens, MDA-MB-231, breast cancer, 48 h
[5] = tested on: A549/ATCC; experiment: NCI 60 cell line panel screening assay (SRB), A549/ATCC; format: cell-based; conditions: Homo sapiens, non-small cell lung cancer, 48 h, read-out: Log10 GI50 (converted)
[6] = tested on: NCI-H322M; experiment: cells; conditions: Homo sapiens, 48 h
[7] = tested on: MCF7/ADR-RES; experiment: cells; format: cell-based; conditions: Homo sapiens, MCF7/ADR-RES, breast cancer, 48 h
[8] = tested on: TK-10; experiment: cells; format: cell-based; conditions: Homo sapiens, TK-10, renal cancer, 48 h
[9] = tested on: HL-60(TB); experiment: cells; format: cell-based; conditions: Homo sapiens
[10] = tested on: SK-OV-3; experiment: cells; format: cell-based; conditions: Homo sapiens
[11] = tested on: OVCAR-4; experiment: cells; format: cell-based; conditions: Homo sapiens
[12] = tested on: chloroquine-sensitive P. falciparum (NF54); experiment: In vitro antimalarial activity ([3H]hypoxanthine incorporation); format: cell-based
[13] = tested on: ACHN; experiment: NCI 60 cell line panel screening assay (SRB), ACHN; format: cell-based; conditions: Homo sapiens, renal cancer, 48 h
[14] = tested on: MALME-3M; experiment: cells; format: cell-based; conditions: Homo sapiens, 48 h
[15] = tested on: SNB-19; experiment: cells; format: cell-based; conditions: Homo sapiens, SNB-19, CNS cancer, 48 h
[16] = tested on: UACC-62; experiment: cells; format: cell-based; conditions: Homo sapiens
[17] = tested on: HCT-116; experiment: cells; format: cell-based; conditions: Homo sapiens, HCT-116, 48 h
[18] = tested on: SF-295; experiment: cells; format: cell-based; conditions: Homo sapiens, SF-295, CNS cancer, 48 h
[19] = tested on: NCI-H226; experiment: cells; format: cell-based; conditions: Homo sapiens, NCI-H226, 48 h, read-out: Log10 GI50 (converted)
[20] = tested on: EKVX; experiment: NCI 60 cell line panel screening assay (SRB), EKVX; format: cell-based; conditions: Homo sapiens, non-small cell lung cancer, 48 h, read-out: Log10 GI50 (converted)
[21] = tested on: UO-31; experiment: NCI 60 cell line panel screening assay (SRB), UO-31; format: cell-based; conditions: Homo sapiens, UO-31, renal cancer, 48 h
[22] = tested on: T-47D; experiment: NCI 60 cell line panel screening assay (SRB), T-47D; conditions: Homo sapiens, T47D, 48 h
[23] = tested on: LOX IMVI; experiment: cells; format: cell-based; conditions: Homo sapiens, melanoma, 48 h
[24] = tested on: NCI-H522; experiment: cells; format: cell-based; conditions: Homo sapiens
[25] = tested on: NCI-H460; experiment: cells; format: cell-based; conditions: Homo sapiens; NCI-H460, non-small cell lung cancer, 48 h; read-out: Log10 GI50 (converted)
[26] = tested on: MDA-N; experiment: NCI 60 cell line panel screening assay (SRB), MDA-N; format: cell-based; conditions: Homo sapiens, breast cancer, 48 h, read-out: Log10 GI50 (converted)
[27] = tested on: MDA-MB435; experiment: NCI 60 cell line panel screening assay (SRB), MDA-MB435; format: cell-based; conditions: Homo sapiens
[28] = tested on: SK-MEL-2; experiment: cells; format: cell-based; conditions: Homo sapiens, SK-MEL-2, melanoma, 48 h
[29] = tested on: SW-620; experiment: NCI 60 cell line panel screening assay (SRB), SW-620; format: cell-based; conditions: Homo sapiens
[30] = read-out: Log10 GI50 (converted)
[31] = read-out: Log10 LC50 (converted)

CC1CCC2C(C)C(CC(=O)c3cccc(C(=O)CC4OC5OC6(C)CCC7C(C)CCC(C4C)C57OO6)c3)OC3OC4(C)CCC1C32OO4 (stereo not shown) [Dimer 39]
GI50 [1, 30]: > 100 µM
CC50 [1, 31]: > 100 µM
CC50 ([2]; MOLT-4, 48 h, read-out: Log10 LC50 (converted)): > 100 µM
IC (TGI) ([2]; MOLT-4, 48 h, read-out: Log10 TGI): > 100 µM
CC50 ([2]; MOLT-4, read-out: concentration for cytotoxicity (PG -50)): > 100 µM
IC50 ([2]; MOLT-4, read-out: concentration for primary growth inhibition (PG +50)): > 100 µM
GI50 [3, 30]: > 100 µM
CC50 [3, 31]: > 100 µM
GI50 [4, 30]: > 100 µM
CC50 [4, 31]: > 100 µM
GI50 [5]: > 100 µM
GI50 [6, 30]: > 100 µM
CC50 [6, 31]: > 100 µM
IC (TGI) ([6]; read-out: Log10 TGI): > 100 µM
GI50 [7, 30]: > 100 µM
CC50 [7, 31]: > 100 µM
GI50 [8, 30]: > 100 µM
CC50 [8, 31]: > 100 µM
IC (TGI) ([8]; read-out: Log10 TGI): > 100 µM
CC50 ([9]; HL-60, 48 h, read-out: Log10 LC50 (converted)): > 100 µM
GI50 ([9]; HL-60(TB), leukemia, 48 h, read-out: Log10 GI50 (converted)): > 100 µM
IC (TGI) ([9]; HL-60(TB), leukemia, 48 h, read-out: Log10 TGI): > 100 µM
IC (TGI) ([10]; SK-OV-3, 48 h, read-out: Log10 TGI): > 100 µM
GI50 ([10]; SK-OV-3, ovarian cancer, 48 h, read-out: Log10 GI50 (converted)): > 100 µM
CC50 ([10]; SK-OV-3, ovarian cancer, 48 h, read-out: Log10 LC50 (converted)): > 100 µM
IC (TGI) ([11]; OVCAR-4, 48 h, read-out: Log10 TGI): > 100 µM
GI50 ([11]; OVCAR-4, ovarian cancer, 48 h, read-out: Log10 GI50 (converted)): > 100 µM
CC50 ([11]; OVCAR-4, ovarian cancer, 48 h, read-out: Log10 LC50 (converted)): > 100 µM
in vitro antimalarial potency relative to artemisinin ([12]; P. falciparum NF54): more potent than artemisinin
IC50 ([12]; Plasmodium falciparum, chloroquine-sensitive P. falciparum NF54, in vitro): 0.0019 µM
GI50 [13, 30]: > 100 µM
IC (TGI) ([13]; read-out: Log10 TGI): > 100 µM
IC (TGI) ([14]; Malme-3M, read-out: Log10 TGI): > 100 µM
GI50 ([14]; MALME-3M, melanoma, read-out: Log10 GI50 (converted)): > 100 µM
LC50 (50% lethal concentration) ([14]; MALME-3M, melanoma, read-out: Log10 LC50 (converted)): > 100 µM
GI50 [15, 30]: > 100 µM
CC50 [15, 31]: > 100 µM
IC (TGI) ([15]; read-out: Log10 TGI): > 100 µM
IC (TGI) ([16]; UACC-62, 48 h, read-out: Log10 TGI): > 100 µM
GI50 ([16]; UACC-62, melanoma, 48 h, read-out: Log10 GI50 (converted)): > 100 µM
LC50 ([16]; UACC-62, melanoma, 48 h, read-out: Log10 LC50 (converted)): > 100 µM
GI50 [17, 30]: > 100 µM
CC50 [17, 31]: > 100 µM
GI50 [18, 30]: > 100 µM
CC50 [18, 31]: > 100 µM
GI50 [19]: 29.5 µM
GI50 [20]: > 100 µM
GI50 [21, 30]: > 100 µM
CC50 [21, 31]: > 100 µM
IC (TGI) ([21]; read-out: Log10 TGI): > 100 µM
GI50 [22, 30]: > 100 µM
CC50 [22, 31]: > 100 µM
GI50 [23, 30]: > 100 µM
CC50 [23, 31]: > 100 µM
IC (TGI) ([23]; read-out: Log10 TGI (converted)): > 100 µM
CC50 ([24]; NCI-H522, 48 h, read-out: Log10 LC50 (converted)): > 100 µM
GI50 ([24]; NCI-H522, non-small cell lung cancer, 48 h, read-out: Log10 GI50 (converted)): > 100 µM
GI50 [25]: > 100 µM
GI50 [26]: > 100 µM
CC50 ([27]; MDA-MB-435, 48 h, read-out: Log10 LC50 (converted)): > 100 µM
GI50 ([27]; MDA-MB-435, printed MDA-MBA35, breast cancer, 48 h, read-out: Log10 GI50 (converted)): > 100 µM
GI50 [28, 30]: > 100 µM
CC50 [28, 31]: > 100 µM
IC (TGI) ([28]; read-out: Log10 TGI): > 100 µM
GI50 ([29]; SW-620, 48 h, read-out: Log10 GI50 (converted)): > 100 µM
CC50 ([29]; SW-620, colon cancer, 48 h, read-out: Log10 LC50 (converted)): > 100 µM
IC (TGI) ([29]; SW-620, colon cancer, 48 h, read-out: Log10 TGI): > 100 µM
